Experiments:
[1] = biological target: T1, Solute carrier organic anion transporter family member 1B3 (Homo sapiens, UniProt Q9NPD5); conditions: chinese hamster, cho, 10 µM
T1 sequence (Q9NPD5 whole entry): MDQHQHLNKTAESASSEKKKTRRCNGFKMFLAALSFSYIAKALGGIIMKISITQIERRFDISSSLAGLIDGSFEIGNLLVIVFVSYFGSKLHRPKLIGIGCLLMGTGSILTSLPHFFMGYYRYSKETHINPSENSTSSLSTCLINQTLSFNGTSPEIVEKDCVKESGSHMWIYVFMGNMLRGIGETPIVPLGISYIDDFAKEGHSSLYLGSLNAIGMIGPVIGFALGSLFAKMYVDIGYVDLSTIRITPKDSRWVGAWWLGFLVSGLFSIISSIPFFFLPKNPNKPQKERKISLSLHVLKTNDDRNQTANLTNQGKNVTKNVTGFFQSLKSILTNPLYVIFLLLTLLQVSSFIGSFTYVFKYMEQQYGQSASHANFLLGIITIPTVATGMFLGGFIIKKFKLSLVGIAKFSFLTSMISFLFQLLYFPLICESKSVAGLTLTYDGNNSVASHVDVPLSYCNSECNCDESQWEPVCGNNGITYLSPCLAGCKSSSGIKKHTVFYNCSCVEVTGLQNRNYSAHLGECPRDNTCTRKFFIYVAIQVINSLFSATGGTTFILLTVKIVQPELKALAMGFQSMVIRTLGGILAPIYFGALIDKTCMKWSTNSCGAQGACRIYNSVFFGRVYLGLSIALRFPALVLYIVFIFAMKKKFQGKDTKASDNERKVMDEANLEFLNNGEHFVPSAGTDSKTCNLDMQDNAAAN

[2] = biological target: T2, Solute carrier organic anion transporter family member 1B1 (Homo sapiens, UniProt Q9Y6L6); conditions: chinese hamster, cho, 10 µM
T2 sequence (Q9Y6L6 whole entry): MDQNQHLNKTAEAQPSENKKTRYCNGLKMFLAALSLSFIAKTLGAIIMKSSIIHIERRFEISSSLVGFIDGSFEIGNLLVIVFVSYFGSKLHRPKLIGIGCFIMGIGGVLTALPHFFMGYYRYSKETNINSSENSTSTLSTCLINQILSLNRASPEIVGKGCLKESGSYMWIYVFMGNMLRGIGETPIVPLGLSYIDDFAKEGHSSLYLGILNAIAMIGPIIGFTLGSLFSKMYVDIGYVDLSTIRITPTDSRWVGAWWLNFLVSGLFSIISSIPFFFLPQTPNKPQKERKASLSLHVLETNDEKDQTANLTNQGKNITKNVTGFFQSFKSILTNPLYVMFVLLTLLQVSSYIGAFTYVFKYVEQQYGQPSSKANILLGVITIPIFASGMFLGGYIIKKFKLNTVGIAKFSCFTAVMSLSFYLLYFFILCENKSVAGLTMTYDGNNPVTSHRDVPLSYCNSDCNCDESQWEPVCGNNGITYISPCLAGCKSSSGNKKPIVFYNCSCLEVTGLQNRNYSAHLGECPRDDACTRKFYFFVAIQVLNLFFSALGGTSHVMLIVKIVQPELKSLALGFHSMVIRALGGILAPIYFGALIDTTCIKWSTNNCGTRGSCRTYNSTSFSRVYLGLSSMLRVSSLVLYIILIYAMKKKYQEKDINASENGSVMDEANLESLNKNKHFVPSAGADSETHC

Row | SMILES | residual activity [1] | residual activity [2]
1 | COc1ccc2c(c1OC)OC[C@@H](c1ccc(OC)c(OC)c1OC)C2 [DUARTIN, DIMETHYL ETHER] | 110.8% | 113.2%
2 | C[N+]1(C)[C@@H]2CC[C@H]1C[C@@H](OC(=O)C(O)c1ccccc1)C2.[Br-] (some centres undefined) [HOMATROPINE METHYLBROMIDE] | 73.94% | 77.55%
3 | O=C1C=C2C(=CCOC2O)O1 (centres undefined) [PATULIN] | 79.09% | 81.5%
4 | CC(C)(C)NCC(O)c1cc(O)cc(O)c1.O=S(=O)(O)O (centres undefined) | 94.09% | 89.3%
5 | COc1cc(/C=C/C(=O)O)cc(OC)c1OC [SINAPIC ACID METHYL ETHER] | 88.51% | 80.23%
6 | O=C1CC[C@]23/C=C/C(=O)NCCCCNCCCNC(=O)/C=C\c4ccc(c2c4)O[C@@H]3C1 | 100.4% | 70.42%
7 | CCOP(=S)(OCC)SCn1c(=O)oc2cc(Cl)ccc21 [PHOSALONE] | 124% | 116.2%
8 | O=C(OCC(O)CO)c1ccccc1Nc1ccnc2cc(Cl)ccc12 (centres undefined) [GLAFENINE] | 130.7% | 188.5%
9 | O=c1cc(-c2cc(O)c(O)c(O)c2)oc2cc(O)cc(O)c12 [TRICETIN] | 127.6% | 79.5%
10 | CCCCCC(=O)O[C@]1(C(C)=O)CC[C@H]2[C@@H]3CCC4=CC(=O)CC[C@]4(C)[C@H]3CC[C@@]21C [HYDROXYPROGESTERONE CAPROATE] | 55.76% | 40.59%
11 | C[C@@H]1C(=O)O[C@H]2[C@H]1CC[C@@]1(C)C=CC(=O)[C@@]3(C)O[C@@]213 [EPOXY (4,5alpha)-4,5-DIHYDROSANTONIN] | 88.69% | 91.53%
12 | COC1(C)CCC2OC2(C)CCC2C1CC2(C)C (centres undefined) [2-METHOXY-5 (6)EPOXY-TETRAHYDROCARYOPHYLLENE] | 93.07% | 92.29%
13 | CO[C@H]1/C=C/O[C@@]2(C)Oc3c(C)c(O)c4c(O)c(c5c(nc6cc(C)ccn65)c4c3C2=O)NC(=O)/C(C)=C\C=C\[C@H](C)[C@H](O)[C@@H](C)[C@@H](O)[C@@H](C)[C@H](OC(C)=O)[C@@H]1C [RIFAXIMIN] | 81.07% | 63.34%
14 | O=C(O)/C=C/c1ccc(O)c(O)c1 [CAFFEIC ACID] | 94% | 69.6%
15 | CC(=O)OC1CCC23CC1(C)CCC2C(C)(C)CC3OC(C)=O (centres undefined) [CLOVANEDIOL DIACETATE] | 85.3% | 109.5%
16 | C#CCCCCCCCCCCCC(O)CC(O)CO (centres undefined) [AVOCADYNE] | 124.3% | 96.1%
17 | O=C(O)/C=C/C=C/c1ccccc1 [JUAREZIC ACID] | 88.74% | 102.3%
18 | COc1cc2c(cc1O)[C@@H](Cc1ccc(O)cc1)[N+](C)(C)CC2.[I-] [MAGNOCURARINE IODIDE] | 96.29% | 91.83%
19 | COC1=CC(=O)C[C@@H](C)[C@]12Oc1c(Cl)c(OC)cc(OC)c1C2=O [GRISEOFULVIN] | 97.62% | 65.59%
20 | COC(=O)C1=C(C)NC(C)=C(C(=O)OC)C1c1ccccc1[N+](=O)[O-] [NIFEDIPINE] | 170.6% | 75.83%
21 | O=C1OC(c2ccc(O)cc2)(c2ccc(O)cc2)c2ccccc21 [PHENOLPHTHALEIN] | 37.96% | 20.62%
22 | COc1ccc2c(c1OC)C(=O)O[C@H]2[C@H]1c2cc3c(cc2CCN1C)OCO3 [1R,9S-HYDRASTINE] | 84.49% | 94.94%
23 | CC1=CCCC2C1(C)CCC(C)C2(C)CC/C(C)=C/Cn1c[n+](C)c2c(N)ncnc21 (centres undefined) [AGELASINE (stereochemistry of diterpene unknown)] | 93.91% | 56.98%
24 | COc1cc2c(cc1OC)[C@@H]1C(=O)c3ccc(OC)c(CC=C(C)C)c3O[C@@H]1CO2 [ROTENONIC ACID, METHYL ETHER] | 108.1% | 77.03%

Row | SMILES | residual activity [1] | residual activity [2]
25 | CCCCC[C@@H](O)[C@H]1C(=O)O[C@H](C)[C@@H](O)/C=C/C=C/C=C/C=C/C=C(\C)[C@@H](O)C[C@H](O)C[C@H](O)C[C@H](O)C[C@H](O)C[C@H](O)C[C@@H]1O [FILIPIN] | 93.93% | 96.46%
26 | COC(=O)c1cc(OC)c(=O)c2c(OC)c(OC)ccc2c1 [METHYL 7-DESOXYPURPUROGALLIN-7-CARBOXYLATE TRIMETHYL ETHER] | 100.1% | 133.8%
27 | CCOC(=O)c1c(C)cc(O)c(C)c1O [METHYLORSELLINIC ACID, ETHYL ESTER] | 105.6% | 76.13%
28 | CC(=O)O.N=C(N)N/N=C/c1c(Cl)cccc1Cl [GUANABENZ ACETATE] | 87.6% | 90.81%
29 | CC(C)(S)[C@@H](N)C(=O)O [PENICILLAMINE] | 124% | 100.4%
30 | CC(COc1ccccc1)N(CCCl)Cc1ccccc1.Cl (centres undefined) [PHENOXYBENZAMINE HYDROCHLORIDE] | 88.73% | 101.5%
31 | CCOP(=S)(OCC)SCCSCC [DISULFOTON] | 105.1% | 113.3%
32 | COc1cc2c(cc1OC)[C@@H]1Cc3ccc(OC)c(OC)c3CN1CC2 [TETRAHYDROPALMATINE] | 106.9% | 186.7%
33 | CNC[C@H](O)c1cccc(O)c1.Cl [PHENYLEPHRINE HYDROCHLORIDE] | 106.2% | 91.9%
34 | Cl.FC(F)(F)c1cccc(N2CCNCC2)c1 [N- (3-TRIFLUOROMETHYLPHENYL)PIPERAZINE HYDROCHLORIDE (TFMPP)] | 80.23% | 106.1%
35 | CN(C)/N=N/c1[nH]cnc1C(N)=O [DACARBAZINE] | 90.13% | 97.65%
36 | Oc1c(Cl)cc(Cl)c2cccnc12 [CHLOROXINE] | 62.22% | 43.47%
37 | Cc1cc(=O)c2c(O)c3c(cc2o1)OC(C)(C)CC3 [DIHYDROSPATHELIACHROMENE] | 116.8% | 127.1%
38 | CC(C)CCC[C@@H](C)[C@H]1CC[C@H]2C3=CC[C@H]4C[C@@H](O)CC[C@]4(C)[C@H]3CC[C@]12C | 99.24% | 85.16%
39 | CCCCCCNC(=O)n1cc(F)c(=O)[nH]c1=O [CARMOFUR] | 98.17% | 107%
40 | Nc1ccc(C(=O)NCC(=O)O)cc1 [AMINOHIPPURIC ACID] | 94.72% | 82.43%
41 | COc1ccc(-c2cc(=O)c3c(OC(C)=O)cc(OC(C)=O)cc3o2)cc1 [ACACETIN DIACETATE] | 127.6% | 133.5%
42 | CSCCC(NC=O)C(=O)NC(C)C(=O)O (centres undefined) [N-FORMYLMETHIONYLALANINE] | 108.8% | 100.9%
43 | Cc1c(NC(C)C)c(=O)n(-c2ccccc2)n1C [RAMIFENAZONE] | 89.79% | 105.5%
44 | O=C(O)c1nn(Cc2ccc(Cl)cc2Cl)c2ccccc12 [LONIDAMINE] | 108% | 129%
45 | CC(C)CCC[C@@H](C)[C@H]1CC[C@H]2[C@@H]3CC(=O)[C@H]4C[C@@H](O)CC[C@]4(C)[C@H]3CC[C@]12C [5alpha-CHOLESTAN-3beta-OL-6-ONE] | 105.8% | 101.9%
46 | COc1cc2ccc(=O)oc2c(O)c1O [FRAXETIN] | 106.2% | 68.87%
47 | C=C(C)[C@H]1Cc2c(ccc3c2O[C@@H]2COc4cc(OC)c(OC)cc4[C@@H]2C3=O)O1 [ROTENONE] | 43.86% | 23.22%

From ChEMBL document CHEMBL3039007, “Structure-based identification of OATP1B1/3 inhibitors” (Mol Pharmacol, 2013)
